Measured values reported in patent publication EP1096933B1, “USE OF AN INHIBITOR OF CYTOCHROME P450 OPTIONALLY COMBINED WITH AN ANTIFUNGAL AGENT FOR TREATING MYCOSES” (priority 1998, dated 2000).
Where two headings read alike, the source gives them in different places.

Assays:
Test in all cases: growth of strains streaked on Sabouraud agar containing the products
Type in all cases: cell-based
Epidermophyton floccosum = conditions: Epid.Flocosum, read-out: % DE CROISSANCE
Protocol: (§1) Ces molécules ont été incorporées dans un milieu gélosé dit de Sabouraud (peptone 10g/l, glucose 10 g/l, gomme agar 15 g/l).
(§2) Des souches de diverses espèces de champignons ont été ensemencées par stries par la méthode de Stires.
(§3) Le pourcentage de croissance a été mesuré au cours du temps, pour des périodes allant jusqu'à 21 jours, pour certaines des souches testées.
(§4) Les quantités de pipéronyl butoxyde, et de cyclopyroxolamine utilisées sont identiques et sont de 10 ou 20 µg/ml dans le cas de l'association entre ces deux composés.
(§5) Dans le cas de l'association entre le pipéronyl butoxyde et l'éconazole, elles sont respectivement de 10 ou 20 µg/ml de pipéronyl butoxyde et de 1 µg/ml d'éconazole.
(§6) Des souches appartenant aux espèces suivantes ont été testées: Microsporum canis, Trichophyton rubrum, Trichophyton interdigitale, Trichophyton mentagrophytes, Microsporum persicolor, Epidermophyton floccosum, Trichophyton violaceum et Trichophyton soudanense.
(§7) L'activité du pipéronyl butoxyde seul a été testée à diverses concentrations, comme indiqué dans le tableau 1 sur le milieu de Sabouraud, dépourvu de tout autre fongicide.

Microsporum canis = conditions: read-out: % DE CROISSANCE; for activity at 1 µg/mL: Micro. Canis
Protocol: as §1, §2, §3, §4, §5, §6, §7

Microsporum persicolor = conditions: Nannizzia persicolor, Micro.Persicolor, read-out: % DE CROISSANCE; for activity at 1 µg/mL: Econazole 1µg/ml; for activity at 10 µg/mL: 10µg/ml each product
Protocol: as §1, §2, §3, §4, §5, §6, §7

[1] = system: Trichophyton interdigitale; conditions: Tric.Interdigitale, read-out: % DE CROISSANCE
Protocol: as §1, §2, §3, §4, §5, §6, §7

[2] = system: Trichophyton mentagrophytes; conditions: Tric.Mentagophytes, read-out: % DE CROISSANCE
Protocol: as §1, §2, §3, §4, §5, §6, §7

Trichophyton rubrum = conditions: Tric.Rubrum, read-out: % DE CROISSANCE
Protocol: as §1, §2, §3, §4, §5, §6, §7

Trichophyton soudanense = conditions: Tric.Soudanese, read-out: % DE CROISSANCE
Protocol: as §1, §2, §3, §4, §5, §6, §7

Trichophyton violaceum = conditions: Tric.Violaceum, read-out: % DE CROISSANCE
Protocol: as §1, §2, §3, §4, §5, §6, §7

[3] = 144 h, J6, 10µg/ml each product
[4] = 240 h, J10, 10µg/ml each product
[5] = 336 h, J14, 10µg/ml each product
[6] = 144 h, J6, 20µg/ml each product
[7] = 240 h, J10, 20µg/ml each product
[8] = 336 h, J14, 20µg/ml each product

Clc1ccc(COC(Cn2ccnc2)c2ccc(Cl)cc2Cl)cc1 (centres unmarked) [Econazole, éconazole]
activity at 1 µg/mL (Epidermophyton floccosum; 0 h, J0, Econazole 1µg/ml): 0% | activity at 1 µg/mL (Epidermophyton floccosum; 96 h, J4, Econazole 1µg/ml): 0% | activity at 1 µg/mL (Epidermophyton floccosum; 144 h, J6, Econazole 1µg/ml): 0% | activity at 1 µg/mL (Epidermophyton floccosum; 240 h, J10, Econazole 1µg/ml): 5% | activity at 1 µg/mL (Epidermophyton floccosum; 336 h, J14, Econazole 1µg/ml): 10% | activity at 1 µg/mL (Microsporum canis; 0 h, J0, Econazole 1µg/ml): 0% | activity at 1 µg/mL (Microsporum canis; 96 h, J4, Econazole 1µg/ml): 0% | activity at 1 µg/mL (Microsporum canis; 144 h, J6, Econazole 1µg/ml): 10% | activity at 1 µg/mL (Microsporum canis; 240 h, J10, Econazole 1µg/ml): 40% | activity at 1 µg/mL (Microsporum canis; 336 h, J14, Econazole 1µg/ml): 80% | activity at 1 µg/mL (Microsporum persicolor; 0 h, J0): 0% | activity at 1 µg/mL (Microsporum persicolor; 96 h, J4): 0% | activity at 1 µg/mL (Microsporum persicolor; 144 h, J6): 0% | activity at 1 µg/mL (Microsporum persicolor; 240 h, J10): 15% | activity at 1 µg/mL (Microsporum persicolor; 336 h, J14): 50% | activity at 1 µg/mL ([1]; 0 h, J0, Econazole 1µg/ml): 0% | activity at 1 µg/mL ([1]; 96 h, J4, Econazole 1µg/ml): 5% | activity at 1 µg/mL ([1]; 144 h, J6, Econazole 1µg/ml): 5% | activity at 1 µg/mL ([1]; 240 h, J10, Econazole 1µg/ml): 40% | activity at 1 µg/mL ([1]; 336 h, J14, Econazole 1µg/ml): 60% | activity at 1 µg/mL ([2]; 0 h, J0, Econazole 1µg/ml): 0% | activity at 1 µg/mL ([2]; 96 h, J4, Econazole 1µg/ml): 5% | activity at 1 µg/mL ([2]; 144 h, J6, Econazole 1µg/ml): 10% | activity at 1 µg/mL ([2]; 240 h, J10, Econazole 1µg/ml): 30% | activity at 1 µg/mL ([2]; 336 h, J14, Econazole 1µg/ml): 40% | activity at 1 µg/mL (Trichophyton rubrum; 0 h, J0, Econazole 1µg/ml): 0% | activity at 1 µg/mL (Trichophyton rubrum; 96 h, J4, Econazole 1µg/ml): 0% | activity at 1 µg/mL (Trichophyton rubrum; 144 h, J6, Econazole 1µg/ml): 20% | activity at 1 µg/mL (Trichophyton rubrum; 240 h, J10, Econazole 1µg/ml): 60% | activity at 1 µg/mL (Trichophyton rubrum; 336 h, J14, Econazole 1µg/ml): 70% | activity at 1 µg/mL (Trichophyton soudanense; 0 h, J0, Econazole 1µg/ml): 0% | activity at 1 µg/mL (Trichophyton soudanense; 96 h, J4, Econazole 1µg/ml): 0% | activity at 1 µg/mL (Trichophyton soudanense; 144 h, J6, Econazole 1µg/ml): 0% | activity at 1 µg/mL (Trichophyton soudanense; 240 h, J10, Econazole 1µg/ml): 30% | activity at 1 µg/mL (Trichophyton soudanense; 336 h, J14, Econazole 1µg/ml): 60% | activity at 1 µg/mL (Trichophyton violaceum; 0 h, J0, Econazole 1µg/ml): 0% | activity at 1 µg/mL (Trichophyton violaceum; 96 h, J4, Econazole 1µg/ml): 0% | activity at 1 µg/mL (Trichophyton violaceum; 144 h, J6, Econazole 1µg/ml): 40% | activity at 1 µg/mL (Trichophyton violaceum; 240 h, J10, Econazole 1µg/ml): 60% | activity at 1 µg/mL (Trichophyton violaceum; 336 h, J14, Econazole 1µg/ml): 100%

Cc1cc(C2CCCCC2)n(O)c(=O)c1 [Cyclopiroxolamine, cyclopiroxolamine]
activity at 10 µg/mL (Epidermophyton floccosum; 0 h, J0, 10µg/ml each product): 0% | activity at 10 µg/mL (Epidermophyton floccosum; 96 h, J4, 10µg/ml each product): 0% | activity at 10 µg/mL (Epidermophyton floccosum; [3]): 0% | activity at 10 µg/mL (Epidermophyton floccosum; [4]): 85% | activity at 10 µg/mL (Epidermophyton floccosum; [5]): 100% | activity at 20 µg/mL (Microsporum canis; 0 h): 0% | activity at 20 µg/mL (Microsporum canis; 96 h): 5% | activity at 20 µg/mL (Microsporum canis; 144 h): 20% | activity at 20 µg/mL (Microsporum canis; 240 h): 60% | activity at 20 µg/mL (Microsporum canis; 336 h): 100% | activity at 10 µg/mL (Microsporum persicolor; 0 h, J0): 0% | activity at 10 µg/mL (Microsporum persicolor; 96 h, J4): 0% | activity at 10 µg/mL (Microsporum persicolor; 144 h, J6): 30% | activity at 10 µg/mL (Microsporum persicolor; 240 h, J10): 75% | activity at 10 µg/mL (Microsporum persicolor; 336 h, J14): 100% | activity at 20 µg/mL ([1]; 0 h, J0, 20µg/ml each product): 0% | activity at 20 µg/mL ([1]; 96 h, J4, 20µg/ml each product): 5% | activity at 20 µg/mL [1, 6]: 10% | activity at 20 µg/mL [1, 7]: 80% | activity at 20 µg/mL [1, 8]: 90% | activity at 20 µg/mL ([2]; 0 h, J0, 20µg/ml each product): 0% | activity at 20 µg/mL ([2]; 96 h, J4, 20µg/ml each product): 5% | activity at 20 µg/mL [2, 6]: 60% | activity at 20 µg/mL [2, 7]: 100% | activity at 20 µg/mL [2, 8]: 100% | activity at 20 µg/mL (Trichophyton rubrum; 0 h, J0, 20µg/ml each product): 0% | activity at 20 µg/mL (Trichophyton rubrum; 96 h, J4, 20µg/ml each product): 0% | activity at 20 µg/mL (Trichophyton rubrum; [6]): 50% | activity at 20 µg/mL (Trichophyton rubrum; [7]): 80% | activity at 20 µg/mL (Trichophyton rubrum; [8]): 100% | activity at 10 µg/mL (Trichophyton soudanense; 0 h, J0, 10µg/ml each product): 0% | activity at 10 µg/mL (Trichophyton soudanense; 96 h, J4, 10µg/ml each product): 0% | activity at 10 µg/mL (Trichophyton soudanense; [3]): 0% | activity at 10 µg/mL (Trichophyton soudanense; [4]): 30% | activity at 10 µg/mL (Trichophyton soudanense; [5]): 60% | activity at 10 µg/mL (Trichophyton violaceum; 0 h, J0, 10µg/ml each product): 0% | activity at 10 µg/mL (Trichophyton violaceum; 96 h, J4, 10µg/ml each product): 0% | activity at 10 µg/mL (Trichophyton violaceum; [3]): 40% | activity at 10 µg/mL (Trichophyton violaceum; [4]): 60% | activity at 10 µg/mL (Trichophyton violaceum; [5]): 100%
